Source: patent US7579432B2, “Cyclic peptides as G-protein-coupled receptor antagonists” (Promics Pty Limited, priority 2001, dated 2009)

Tested on: neutropenia caused by i.v. LPS
Test: LPS-induced neutropenia (endotoxaemia model)
Assay type: in vivo, rat
Conditions: topical in 50% DMSO/50% H2O, 60 min before LPS 1 mg/kg i.v.
Procedure: The in vivo pharmacological properties of cyclic antagonists were examined following topical dermal administration. A model of endotoxaemia was used, in which 1 mg/kg Escherichia coli […] (LPS; serotype 55:B5, Sigma, USA, stored at 100 mg ml^−1 in dH2O, 4° C.), was injected i.v into a rat, resulting in acute changes in circulating PMN levels and blood pressure. These parameters were measured in the presence and absence of C5aR antagonists (1 mg/kg i.v or 50 mg/kg/rat topically). […] Female Wistar rats weighing between 200-250 g were used for in vivo testing of all C5a receptor antagonists. Rats were anaesthetized using the procedure described above, and transferred on to a heating pad to ensure that body temperature was maintained throughout the experiment. A catheter was inserted in the femoral vein, secured with a suture and flushed with 100 μL of heparinised saline. […] All agents infused i.v were injected over a 2 min period, and were followed with a subsequent injection of 100 μL of saline to ensure complete delivery of the drug. Whole blood samples (0.1 mL) were collected from the tail vein at the time of drug and LPS or C5a administration. Samples were collected at −15, 0, 5, 10, 15, 30, 60, 90, 120 and 150 min relative to the injection of LPS (zero time), and placed in tubes containing heparin (500 Units/mL). To isolate PMNs, 100 μL of blood was layered on to 200 μL of Histopaque 1077 (Sigma U.S.A.) solution and centrifuged at 400×g for 30 min min at room temperature (25° C.). The supernatant layer of platelet-rich plasma, the monocyte and lymphocyte interface and the separation layer of Histopaque were removed and discarded, leaving the PMN and red blood-cell rich layer. […] The number of PMNs was counted on a haemocytometer. The number of cells at each time point was calculated as a percentage of the total number of cells at time zero, prior to complement challenge or LPS. […] Circulating PMN levels were monitored for 150 min following LPS injection, and the percentage change in PMN levels from zero time, when LPS was injected, was calculated.

SMILES: CC(=O)N[C@@H](Cc1ccccc1)C(=O)N[C@H]1CCCNC(=O)[C@H](CCCNC(=N)N)NC(=O)[C@H](Cc2c[nH]c3ccccc23)NC(=O)[C@@H](CC2CCCCC2)NC(=O)[C@@H]2CCCN2C1=O [Compound 1, Ac-Phe-[Orn-Pro-dCha-Trp-Arg]]
- neutropenia response to i.v. LPS: inhibited the neutropenia response
